Assay [1] deals with GR. As to the kind of experiment: 18F-YJH08 PET/biodistribution after JG231 treatment. In kind it is in vivo, mouse. The settings on record: once daily for 3 days via intraperitoneal injection. As for the experimental part: At right is shown a maximum intensity projection of supraspinal BAT and muscle from a representative mouse in either treatment arm. Mice (n=5/treatment arm) were treated with JG231 or vehicle once daily for 3 days via intraperitoneal injection.
The biodistribution data are representative of two independent experiments.
The limitations of broad-spectrum GR modulators like corticosteroids are well known, and the severe side effects associated with their long term use (e.g. diabetes mellitus, osteoporosis) motivated drug development campaigns starting in the 1990s to identify safer GR modulators that selectively modulate GR activity (Sundahl, et al. Pharmacol. Ther. 2015, 152, 28-41). […] To test this concept, the biodistribution of ^18F-YJH08 was evaluated in mice after treatment with JG231 (FIGS. 10A and 10B). […] Using the same treatment strategy, mice were subjected to 4 mg/kg/day for three days intraperitoneally, and subsequently treated with ^18F-YJH08. […] In these regions, it appeared that JG231 suppressed radiotracer binding, perhaps indicative of GR degradation. […] Immunoblot studies corroborated the biodistribution data, showing approximately ˜50% reduction in GR expression levels due to JG231 treatment in brown fat, and no change in GR levels from other tissues, for example, kidneys, liver, and muscle (FIG. 10E). […]

Assay [2] relates to GR. As to the kind of experiment: Immunoblot of GR in breast cancer cell lines treated with JG231. It is filed as cell-based, human. The note with it: 24 hours. The procedure:
Cells were treated with the indicated dose for 24 hours.

Assay [3] concerns GR. As to the kind of experiment: Immunoblot of GR in mouse tissues after JG231 treatment. It is filed as in vivo. The note with it: 4 mg/kg/day for three days intraperitoneally. From the text: GR levels were not impacted in liver, kidneys, or muscle, as predicted based on the radiotracer biodistribution data.
The limitations of broad-spectrum GR modulators like corticosteroids are well known, and the severe side effects associated with their long term use (e.g. diabetes mellitus, osteoporosis) motivated drug development campaigns starting in the 1990s to identify safer GR modulators that selectively modulate GR activity (Sundahl, et al. Pharmacol. Ther. 2015, 152, 28-41). […] To test this concept, the biodistribution of ^18F-YJH08 was evaluated in mice after treatment with JG231 (FIGS. 10A and 10B). […] Using the same treatment strategy, mice were subjected to 4 mg/kg/day for three days intraperitoneally, and subsequently treated with ^18F-YJH08. […] In these regions, it appeared that JG231 suppressed radiotracer binding, perhaps indicative of GR degradation. […] Immunoblot studies corroborated the biodistribution data, showing approximately ˜50% reduction in GR expression levels due to JG231 treatment in brown fat, and no change in GR levels from other tissues, for example, kidneys, liver, and muscle (FIG. 10E). This is believed to be the first example of tissue specific GR degradation.

Regarding `CCn1c(=O)/c(=C2\Sc3cc(Cl)ccc3N2C)s/c1=C\c1scc[n+]1Cc1ccc(Br)s1.[Cl-]` [JG231, 3-((5-bromothiophen-2-yl)methyl)-2-((Z)-((E)-5-(6-chloro-3-methylbenzo[d]thiazol-2(3H)-ylidene)-3-ethyl-4-oxothiazolidin-2-ylidene)methyl)thiazol-3-ium chloride], the “effect on ^18F-YJH08 tissue uptake” value with GR [1] was “suppressed radiotracer uptake exclusively in the supraspinal brown fat pad”. For the same compound, the “GR degradation (immunoblot), MCF7” value in the assay with GR [2] (MCF7 cells) is on record as “degrades GR”. Also, the “GR degradation (immunoblot), MDA MB 231” value in the assay with GR [2] (MDA MB 231 cells) was “degrades GR”. Also, in the assay on GR [3], the “GR levels in kidneys, liver, and muscle” value is “no change”; the “reduction in GR expression levels in brown fat” value is approximately 50%.

Source of the values: US20220280661A1, “GLUCOCORTICOID RECEPTOR RADIOLIGANDS AND METHODS FOR THEIR PREPARATION AND USE” (The Regents of the University of California, priority 2019, published 2022).
